From patent US11505548B2, “Heterocyclic compounds and their use for treatment of helminthic infections and diseases” (Celgene Corporation, priority 2019, dated 2022)

Test system: Onchocerca gutturosa Adult Male Worms
Assay: Onchocerciasis in vitro screening model, worm motility score
Assay type: cell-based
Conditions: Onchocerca gutturosa; Table 1 O. gutturosa; levels A/B/C; motility or MTT readout not specified; read-out: O. gutturosa activity level (IC50 or MED)

In the case of `FC(F)(F)c1ccc(Nc2nc(-c3ccccn3)ns2)nc1` [Cmpd 1], the IC50 is reported as less than 200 nM.

Work on `COc1ccc(Nc2nc(-c3ccccn3)ns2)nc1` [Cmpd 2, N-(5-methoxy-pyridin-2-yl)-3-(pyridin-2-yl)-1,2,4-thiadiazol-5-amine] yielded an IC50 of 500 to 5000 nM.

Compound `FC(F)(F)c1cncc(Nc2nc(-c3ccccn3)ns2)c1` [Cmpd 3, 3-(pyridin-2-yl)-N-(5-(trifluoromethyl)pyridin-3-yl)-1,2,4-thiadiazol-5-amine] has an IC50 of 500 to 5000 nM.

With `c1ccc(-c2nsc(Nc3ccc(N4CCNCC4)cn3)n2)nc1` [Cmpd 4, N-(5-(piperazin-1-yl)pyridin-2-yl)-3-(pyridin-2-yl)-1,2,4-thiadiazol-5-amine] the IC50 was 500 to 5000 nM.

`c1ccc(-c2nsc(Nc3ccc(N4CCOCC4)cn3)n2)nc1` [Cmpd 5, N-(5-morpholino-pyridin-2-yl)-3-(pyridin-2-yl)-1,2,4-thiadiazol-5-amine] gave an IC50 of 500 to 5000 nM.

Work on `c1ccc(-c2nsc(Nc3ccc(N4CCCCC4)cn3)n2)nc1` [Cmpd 6, N-(5-(piperidin-1-yl)pyridin-2-yl)-3-(pyridin-2-yl)-1,2,4-thiadiazol-5-amine] yielded an IC50 of less than 200 nM.

`c1ccc(-c2nsc(Nc3ccc(N4CCCC4)cn3)n2)nc1` [Cmpd 8, 3-(pyridin-2-yl)-N-(5-(pyrrolidin-1-yl)pyridin-2-yl)-1,2,4-thiadiazol-5-amine] gave an IC50 of less than 200 nM.

Compound `c1ccc(-c2nsc(Nc3ccc(OC4CCOCC4)cn3)n2)nc1` [Cmpd 9, 3-(pyridin-2-yl)-N-(5-(tetrahydro-2H-pyran-4-yloxy)pyridin-2-yl)-1,2,4-thiadiazol-5-amine] has an IC50 of 500 to 5000 nM.

`c1ccc(-c2nsc(Nc3ccc(OC4CCNCC4)cn3)n2)nc1` [Cmpd 10, N-(5-(piperidin-4-yloxy)pyridin-2-yl)-3-(pyridin-2-yl)-1,2,4-thiadiazol-5-amine] showed an IC50 of 500 to 5000 nM.

Compound `CN1CCC(Oc2ccc(Nc3nc(-c4ccccn4)ns3)nc2)CC1` [Compound 11, N-(5-(1-methyl-piperidin-4-yloxy)pyridin-2-yl)-3-(pyridin-2-yl)-1,2,4-thiadiazol-5-amine] has an IC50 of 500 to 5000 nM.

For `Cc1ccnc(-c2nsc(Nc3ncccc3F)n2)c1` [Compound 12, N-(3-fluoropyridin-2-yl)-3-(4-methylpyridin-2-yl)-1,2,4-thiadiazol-5-amine], the IC50 was less than 200 nM.

With `Cc1ccnc(Nc2nc(-c3ncccc3C(F)(F)F)ns2)c1` [Compound 13, N-(4-methyl-pyridin-2-yl)-3-(3-(trifluoro-methyl)pyridin-2-yl)-1,2,4-thiadiazol-5-amine] the IC50 was 500 to 5000 nM.

Work on `Cc1ccnc(-c2noc(Nc3ncccc3F)n2)c1` [Compound 14, N-(3-fluoro-pyridin-2-yl)-3-(4-methylpyridin-2-yl)-1,2,4-oxadiazol-5-amine] yielded an IC50 of 500 to 5000 nM.

For `Cc1cccnc1Nc1nc(-c2ccc(OC3CCOCC3)cn2)ns1` [Compound 15, N-(3-methyl-pyridin-2-yl)-3-(5-(tetrahydro-2H-pyran-4-yloxy)pyridin-2-yl)-1,2,4-thiadiazol-5-amine], the IC50 was less than 200 nM.

Compound `Cc1cccnc1Nc1nc(-c2ccc(OC3CCOCC3)cn2)no1` [Compound 16, N-(3-methyl-pyridin-2-yl)-3-(5-(tetrahydro-2H-pyran-4-yloxy)pyridin-2-yl)-1,2,4-oxadiazol-5-amine] has an IC50 of less than 200 nM.

`Cc1cccnc1Nc1nc(-c2ccc(C(=O)N(C)C)cn2)ns1` [Compound 17, N,N-dimethyl-6-(5-(3-methylpyridin-2-ylamino)-1,2,4-thiadiazol-3-yl)nicotinamide] showed an IC50 of less than 200 nM.

`Cc1cccnc1Nc1nc(-c2ccc(OC3CCN(C)CC3)cn2)ns1` [Compound 18, 3-(5-(1-methyl-piperidin-4-yloxy)pyridin-2-yl)-N-(3-methylpyridin-2-yl)-1,2,4-thiadiazol-5-amine] was tested, and the IC50 was 200 to 500 nM.

For `Cc1cccnc1Nc1nc(-c2ccc(OC(C)C)cn2)ns1` [Compound 19, 3-(5-isopropoxy-pyridin-2-yl)-N-(3-methyl-pyridin-2-yl)-1,2,4-thiadiazol-5-amine], the IC50 was less than 200 nM.

`Cc1cccnc1Nc1nc(-c2ccc(OC(C)C)cn2)no1` [Compound 20, 3-(5-isopropoxy-pyridin-2-yl)-N-(3-methyl-pyridin-2-yl)-1,2,4-oxadiazol-5-amine] was tested, and the IC50 was less than 200 nM.

`Cc1cccnc1Nc1nc(-c2ccc(OC3CCN(C)CC3)cn2)no1` [Compound 21, 3-(5-(1-methyl-piperidin-4-yloxy)pyridin-2-yl)-N-(3-methylpyridin-2-yl)-1,2,4-oxadiazol-5-amine] was tested, and the IC50 was less than 200 nM.

`Cc1cccnc1Nc1nc(-c2cc(C(=O)N(C)C)ccn2)ns1` [Compound 22, N,N-dimethyl-2-(5-(3-methylpyridin-2-ylamino)-1,2,4-thiadiazol-3-yl)isonicotinamide] showed an IC50 of 500 to 5000 nM.

Work on `CNc1cccnc1Nc1nc(-c2cc(C)ccn2)ns1` [Compound 23, N3-methyl-N2-(3-(4-methylpyridin-2-yl)-1,2,4-thiadiazol-5-yl) pyridine-2,3-diamine] yielded an IC50 of less than 200 nM.

For `COc1cccnc1Nc1nc(-c2cc(C)ccn2)ns1` [Compound 24, N-(3-methoxy-pyridin-2-yl)-3-(4-methyl-pyridin-2-yl)-1,2,4-thiadiazol-5-amine], the IC50 was less than 200 nM.

Work on `CCOc1ccc(Nc2nc(-c3ncccc3F)no2)nc1` [Compound 25, N-(5-ethoxy-pyridin-2-yl)-3-(3-fluoropyridin-2-yl)-1,2,4-oxadiazol-5-amine] yielded an IC50 of less than 200 nM.

`Cc1cccnc1Nc1nc(-c2ccc(N3CCS(=O)(=O)CC3)cn2)ns1` [Compound 26, 4-(6-(5-((3-methylpyridin-2-yl)amino)-1,2,4-thiadiazol-3-yl)pyridin-3-yl)thio-morpholine 1,1-dioxide] showed an IC50 of 500 to 5000 nM.

In the case of `Fc1cccnc1-c1noc(Nc2cc(C(F)(F)F)ccn2)n1` [Compound 27, 3-(3-fluoropyridin-2-yl)-N-(4-(trifluoro-methyl)pyridin-2-yl)-1,2,4-oxadiazol-5-amine], the IC50 is reported as less than 200 nM.

`FC(F)(F)c1ccnc(Nc2nc(-c3ccccn3)no2)c1` [Compound 28, 3-(pyridin-2-yl)-N-(4-(trifluoro-methyl)pyridin-2-yl)-1,2,4-o xadiazol-5-amine] gave an IC50 of less than 200 nM.

With `CC(=O)Nc1ccc(-c2nsc(Nc3ncccc3C)n2)nc1` [Compound 29, N-(6-(5-(3-methylpyridin-2-ylamino)-1,2,4-thiadiazol-3-yl)pyridin-3-yl) acetamide] the IC50 was 200 to 500 nM.

With `CN1CCC(Oc2ccc(-c3nsc(Nc4ncccc4F)n3)nc2)CC1` [Compound 30, N-(3-fluoro-pyridin-2-yl)-3-(5-(1-methyl-piperidin-4-yloxy)pyridin-2-yl)-1,2,4-thiadiazol-5-amine] the IC50 was less than 200 nM.

For `Cc1cccnc1Nc1nc(-c2ccc(S(=O)(=O)N(C)C)cn2)ns1` [Compound 31, N,N-dimethyl-6-(5-(3-methylpyridin-2-ylamino)-1,2,4-thiadiazol-3-yl)pyridine-3-sulfonamide], the IC50 was 500 to 5000 nM.

`Cc1cccnc1-c1nnc(Nc2ccccn2)o1` [Compound 32, 5-(3-methyl-pyridin-2-yl)-N-(pyridin-2-yl)-1,3,4-oxadiazol-2-amine] was tested, and the IC50 was 500 to 5000 nM.

In the case of `c1ccc(Nc2nc(-c3ccccn3)ns2)nc1` [Compound 33, N,3-di(pyridin-2-yl)-1,2,4-thiadiazol-5-amine], the IC50 is reported as less than 200 nM.

`CN1CCC(Oc2ccc(-c3nsc(Nc4cc(C(F)(F)F)ccn4)n3)nc2)CC1` [Compound 34, 3-(5-(1-methyl-piperidin-4-yloxy)pyridin-2-yl)-N-(4-(trifluoro-methyl)pyridin-2-yl)-1,2,4-thiadiazol-5-amine] showed an IC50 of 500 to 5000 nM.

Work on `CCOc1ccc(Nc2nc(-c3cc(OC)ccn3)no2)nc1` [Compound 35, N-(5-ethoxy-pyridin-2-yl)-3-(4-methoxy-pyridin-2-yl)-1,2,4-oxadiazol-5-amine] yielded an IC50 of less than 200 nM.

Work on `CN1CCC(Oc2ccc(-c3nsc(Nc4ncccn4)n3)nc2)CC1` [Compound 36, 3-(5-(1-methyl-piperidin-4-yloxy)pyridin-2-yl)-N-(pyrimidin-2-yl)-1,2,4-thiadiazol-5-amine] yielded an IC50 of 500 to 5000 nM.

`Cc1ccnc(-c2nsc(Nc3ncccc3C(F)(F)F)n2)c1` [Compound 37, 3-(4-methyl-pyridin-2-yl)-N-(3-(trifluoro-methyl)pyridin-2-yl)-1,2,4-thiadiazol-5-amine] showed an IC50 of less than 200 nM.

In the case of `Cc1cccnc1Nc1nc(-c2ccc(OC3CC3)cn2)ns1` [Compound 38, 3-(5-cyclo-propoxypyridin-2-yl)-N-(3-methyl-pyridin-2-yl)-1,2,4-thiadiazol-5-amine], the IC50 is reported as less than 200 nM.

Work on `Cc1cccnc1Nc1nc(-c2cc(C#N)ccn2)ns1` [Compound 40, 2-(5-(3-methyl-pyridin-2-ylamino)-1,2,4-thiadiazol-3-yl)isonicotino-nitrile] yielded an IC50 of 500 to 5000 nM.

With `Cc1cccnc1-c1nnc(Nc2ccccn2)[nH]1` [Compound 41, N-(5-(3-methyl-pyridin-2-yl)-4H-1,2,4-triazol-3-yl)pyridin-2-amine] the IC50 was less than 200 nM.

`Cc1cccnc1-c1noc(Nc2ccc(N3CCCC3)cn2)n1` [Compound 42, 3-(3-methyl-pyridin-2-yl)-N-(5-(pyrrolidin-1-yl)pyridin-2-yl)-1,2,4-oxadiazol-5-amine] gave an IC50 of less than 200 nM.

`COc1ccc(-c2nsc(Nc3ccc(OC4CCOCC4)cn3)n2)nc1` [Compound 43, 3-(5-methoxy-pyridin-2-yl)-N-(5-(tetrahydro-2H-pyran-4-yloxy)pyridin-2-yl)-1,2,4-thiadiazol-5-amine] gave an IC50 of less than 200 nM.

Compound `Cc1cccnc1Nc1nc(-c2cc(C3CCN(C)CC3)ccn2)ns1` [Compound 44, 3-(4-(1-methyl-piperidin-4-yl)pyridin-2-yl)-N-(3-methylpyridin-2-yl)-1,2,4-thiadiazol-5-amine] has an IC50 of less than 200 nM.

Compound `Cc1cccnc1Nc1nc(-c2ccc(OC3CCN(C4CC4)CC3)cn2)ns1` [Compound 45, 3-(5-(1-cyclo-propylpiperidin-4-yloxy)pyridin-2-yl)-N-(3-methylpyridin-2-yl)-1,2,4-thiadiazol-5-amine] has an IC50 of less than 200 nM.

Work on `COc1ccc(-c2nsc(Nc3cc(OC4CCOCC4)ccn3)n2)nc1` [Compound 46, 3-(5-methoxy-pyridin-2-yl)-N-(4-(tetrahydro-2H-pyran-4-yloxy)pyridin-2-yl)-1,2,4-thiadiazol-5-amine] yielded an IC50 of 200 to 500 nM.

`COc1ccc(-c2noc(Nc3cc(OC4CCOCC4)ccn3)n2)nc1` [Compound 47, 3-(5-methoxy-pyridin-2-yl)-N-(4-(tetrahydro-2H-pyran-4-yloxy)pyridin-2-yl)-1,2,4-oxadiazol-5-amine] gave an IC50 of 500 to 5000 nM.
